Laboratory results taken from EP1092438B1, “Pharmaceutical compositions containing growth-hormone inhibitors or their biologically active fragments for the treatment of uterine myomas” (De Leo, Vincenzo, priority 1999, dated 2006).

Assay: Routine blood parameters before and after treatment
Assay type: in vivo
Details: person
Text: TABLE 1 Example 1 (patient)

SMILES: CC(C)[C@@H]1NC(=O)[C@H](CCCCN)NC(=O)[C@@H](Cc2c[nH]c3ccccc23)NC(=O)[C@H](Cc2ccc(O)cc2)NC(=O)[C@@H](NC(=O)[C@H](N)Cc2ccc3ccccc3c2)CSSC[C@@H](C(=O)N[C@H](C(N)=O)[C@@H](C)O)NC1=O [Lanreotide]
- routine blood parameters: remained unvaried
